One block for each compound: values may come before it.
Assays:
[1] = system: satellite-like cells (Pax7-positive cells) in hMP; assay: Myotube assay: Pax7-positive (satellite-like) cell quantification; type: cell-based, human; design: key to Pax7% (pool of Pax7-positive cells) / Pax7: −: Depletes the pool of cells, while positively affects the myotubes; +: Maintains or increases the pool of cells, with at least 1 of the highest concentration known to be cytotoxic; ++: Maintains or increases the pool of cells, without any toxicity; conditions: for Pax7% (pool of Pax7-positive cells): myotube assay, compounds incubated 3 days
Method in brief: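 DMD hiPSC-derived muscle progenitors (hMP) proliferated 4 days, then plated on collagen I in K5 medium with 5 μM Y-27632. Compound added at 1.5 nM–30 μM for 3 days at 37° C, then cells fixed and immunostained. Pax7-positive cells counted as percentage of total nuclei, duplicates averaged.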

[2] = system: muscle progenitors (hMP) from DMD hiPSC or WT hiPSC; assay: Myotube assay: myogenic activity (total myotube area per well); type: cell-based, human; conditions: for Emax: Homo sapiens, 72 h, myotube assay, compounds incubated 3 days, read-out: MA (normalized Myotube Area, efficacy)
Method in brief: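 DMD or WT hiPSC-derived muscle progenitors plated on collagen I in K5 medium with 5 μM Y-27632, treated with compound (1.5 nM–30 μM) for 3 days at 37° C. Cells were fixed, stained for alpha-actinin and imaged for total myotube area per well. EC50 and normalized myotube area (MA) taken from duplicate-averaged data.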

Structure (SMILES): CC(C)(C)c1cc(NC(=O)Nc2ccc(Oc3ccnc4[nH]c(=O)cnc34)cc2F)sn1 [(q), 1-(3-(tert-butyl)isothiazol-5-yl)-3-(2-fluoro-4-((3-oxo-3,4-dihydropyrido[2,3-b]pyrazin-8-yl)oxy)phenyl)urea]
Pax7% (pool of Pax7-positive cells) [1]: ++
Emax [2]: 50 to 75%

Structure (SMILES): CC(C)(C)c1nnc(NC(=O)Nc2ccc(Oc3ccnc4[nH]c(=O)cnc34)cc2F)s1 [(r), 1-(5-(tert-butyl)-1,3,4-thiadiazol-2-yl)-3-(2-fluoro-4-((3-oxo-3,4-dihydropyrido[2,3-b]pyrazin-8-yl)oxy)phenyl)urea]
Pax7% (pool of Pax7-positive cells) [1]: ++
Emax [2]: ≥ 75%

Structure (SMILES): CC(C)(C)c1cc(NC(=O)Nc2ccc(Oc3ccnc4[nH]c(=O)cnc34)cc2)n(-c2ccccc2)n1 [(s), 1-(3-(tert-butyl)-1-phenyl-1H-pyrazol-5-yl)-3-(4-((3-oxo-3,4-dihydropyrido[2,3-b]pyrazin-8-yl)oxy)phenyl)urea]
Pax7% (pool of Pax7-positive cells) [1]: +
Emax [2]: 50 to 75%

Structure (SMILES): CC(C)(C)c1cc(NC(=O)Nc2ccc(Oc3ccnc4[nH]c(=O)cnc34)nc2)n(-c2ccccc2)n1 [(t), 1-(3-(tert-butyl)-1-phenyl-1H-pyrazol-5-yl)-3-(6-((3-oxo-3,4-dihydropyrido[2,3-b]pyrazin-8-yl)oxy)pyridin-3-yl)urea]
Pax7% (pool of Pax7-positive cells) [1]: +
Emax [2]: 25 to 50%

Structure (SMILES): CC(C)(C)c1cc(NC(=O)Nc2ccc(Oc3ccnc4[nH]c(=O)cnc34)cn2)n(-c2ccccc2)n1 [(u), 1-(3-(tert-butyl)-1-phenyl-1H-pyrazol-5-yl)-3-(5-((3-oxo-3,4-dihydropyrido[2,3-b]pyrazin-8-yl)oxy)pyridin-2-yl)urea]
Pax7% (pool of Pax7-positive cells) [1]: ++
Emax [2]: 25 to 50%

Structure (SMILES): CC(C)(C)c1cc(NC(=O)Nc2ccc(Oc3ccnc4[nH]c(=O)cnc34)cc2C(F)(F)F)n(-c2ccccc2)n1 [(v), 1-(3-(tert-butyl)-1-phenyl-1H-pyrazol-5-yl)-3-(4-((3-oxo-3,4-dihydropyrido[2,3-b]pyrazin-8-yl)oxy)-2-(trifluoromethyl)phenyl)urea]
Pax7% (pool of Pax7-positive cells) [1]: ++
Emax [2]: ≥ 75%

Structure (SMILES): Cc1nc2c(Oc3ccc(NC(=O)Nc4cc(C(C)(C)C)nn4-c4ccccc4)c(F)c3)ccnc2c(=O)[nH]1 [(w), 1-(3-(tert-butyl)-1-phenyl-1H-pyrazol-5-yl)-3-(2-fluoro-4-((2-methyl-4-oxo-3,4-dihydropyrido[3,2-d]pyrimidin-8-yl)oxy)phenyl)urea]
Pax7% (pool of Pax7-positive cells) [1]: ++
Emax [2]: 50 to 75%

Structure (SMILES): O=C(Nc1ccc(Oc2ccnc3[nH]c(=O)cnc23)cc1F)Nc1c2c(nn1-c1ccccc1)CCC2 [(x), 1-(2-fluoro-4-((3-oxo-3,4-dihydropyrido[2,3-b]pyrazin-8-yl)oxy)phenyl)-3-(2-phenyl-2,4,5,6-tetrahydrocyclopenta[c]pyrazol-3-yl)urea]
Pax7% (pool of Pax7-positive cells) [1]: ++
Emax [2]: 25 to 50%

Structure (SMILES): O=C(Nc1ccc(Oc2ccnc3[nH]c(=O)cnc23)cc1F)Nc1c(-c2ccccc2)nn2c1CCC2 [(y), 1-(2-fluoro-4-((3-oxo-3,4-dihydropyrido[2,3-b]pyrazin-8-yl)oxy)phenyl)-3-(2-phenyl-5,6-dihydro-4H-pyrrolo[1,2-b]pyrazol-3-yl)urea]
Pax7% (pool of Pax7-positive cells) [1]: ++
Emax [2]: 25 to 50%

Structure (SMILES): CSc1cc(Oc2ccnc3[nH]c(=O)cnc23)ccc1NC(=O)Nc1nnc(C(C)(C)C)s1 [(z), 1-(5-(tert-butyl)-1,3,4-thiadiazol-2-yl)-3-(2-(methylthio)-4-((3-oxo-3,4-dihydropyrido[2,3-b]pyrazin-8-yl)oxy)phenyl)urea]
Pax7% (pool of Pax7-positive cells) [1]: ++
Emax [2]: ≥ 75%

EC50 ([2]; comparative compounds, same assay, NA: non active, read-out: EC50): 500 to 1000 nM
Structure (SMILES): CC(C)(C)c1cc(NC(=O)Nc2ccc(Oc3ccnc4[nH]c(=O)cnc34)cc2F)n(-c2ccccc2)n1 [CCT196969]
Pax7 ([1]; comparative compounds, same assay): +
MA ([2]; comparative compounds, same assay, NA: non active): ++ (50%≤MA<75%)

Reference: patent US20230089368A1, “POLYAROMATIC UREA DERIVATIVES AND THEIR USE IN THE TREATMENT OF MUSCLE DISEASES” (ANAGENESIS BIOTECHNOLOGIES S.A.S., priority 2019, published 2023)
